Structures are written as SMILES. Converted amounts (≈) assume the structure as drawn.

For experiment [1], the system named is HCT-116. The experiment in a line: Cytotoxicity against human HCT-116 cells assessed as inhibition of cell growth incubated for 24 hrs by XTT assay. The format is functional, cell-based. To be noted: HCT-116, 24 h.
In experiment [2] the test system is Mus musculus. Put plainly: Antitumor activity against mouse H22 cells xenografted in Kunming mouse assessed as decrease in tumor growth at 5 mg/kg administered as single injection via caudal vein for 7 consecutive days. The format is functional. Also on record: scale not given: the % may be the effect or the level left.
Experiment [3] has as its system PANC-1. Put plainly: Cytotoxicity against human PANC-1 cells assessed as inhibition of cell growth incubated for 24 hrs by XTT assay. The format is functional, cell-based. To be noted: PANC-1, 24 h.
For experiment [4], the species on record is Homo sapiens. Put plainly: Binding affinity to double stranded [poly(dA-dT)2] DNA (unknown origin) assessed as change in melting temperature by thermal denaturation based spectrometer analysis.
For experiment [5], the species on record is Homo sapiens. The experiment in a line: Binding affinity to double stranded [poly(dA-dT)2] DNA (unknown origin) assessed as change in melting temperature in presence of NaCl by thermal denaturation based spectrometer analysis.
In experiment [6] the test system is Calf thymus DNA. Put plainly: Binding affinity to calf thymus DNA assessed as binding constant by fluorescence based EtBr-displacement based UV-Vis spectroscopic analysis. The format is nucleic-acid assay. The following applies: Bos taurus.
The subject of experiment [7] is Escherichia coli. Put plainly: Antibacterial activity against Escherichia coli MTCC 443 assessed as inhibition of bacterial growth by agar well diffusion assay. The format is functional.
The test system of experiment [8] is Calf thymus DNA. Put plainly: Binding affinity to calf thymus DNA assessed as DNA intercalation by measuring change in melting temperature by thermal denaturation assay. The format is nucleic-acid assay. The following applies: Bos taurus.
Experiment [9] relates to COLO 205. The experiment in a line: Cytotoxicity against human COLO 205 cells assessed as inhibition of cell growth incubated for 72 hrs by SRB assay. The format is functional, cell-based. The following applies: COLO 205, 72 h, pooled result: one value given for 7 cell lines, strains, targets or settings.
In experiment [10] the test system is Pseudomonas aeruginosa. The experiment in a line: Antibacterial activity against Pseudomonas aeruginosa MTCC 741 assessed as inhibition of bacterial growth by agar well diffusion assay. The format is functional.
For experiment [11], the system named is Staphylococcus aureus. Put plainly: Antibacterial activity against Staphylococcus aureus MTCC 96 assessed as inhibition of bacterial growth by agar well diffusion assay. The format is functional.
Experiment [12] concerns Staphylococcus epidermidis. The experiment in a line: Antibacterial activity against Staphylococcus epidermidis MTCC 435 assessed as inhibition of bacterial growth by agar well diffusion assay. The format is functional.
The species named for experiment [13] is Homo sapiens. The experiment in a line: Binding affinity to double stranded [poly(dG-dC)2] DNA (unknown origin) assessed as equilibrium binding constant by steady-state fluorescence spectroscopic analysis.
The species named for experiment [14] is Homo sapiens. The experiment in a line: Binding affinity to double stranded [poly(dA-dT)2] DNA (unknown origin) assessed as equilibrium binding constant by steady-state fluorescence spectroscopic analysis.
Experiment [15] has as its target Salmon testes DNA. The experiment in a line: Binding affinity to salmon Testis DNA assessed as equilibrium binding constant by steady-state fluorescence spectroscopic analysis. The following applies: Salmo salar.
The subject of experiment [16] is Calf thymus DNA. The experiment in a line: Binding affinity to calf thymus DNA assessed as binding constant incubated for 10 mins by isothermal titration calorimetric assay. The format is nucleic-acid assay. The following applies: Bos taurus.
The subject of experiment [17] is HCT-116. The experiment in a line: Cytotoxicity against human HCT-116 cells assessed as inhibition of cell growth incubated for 48 hrs by MTT assay. The format is functional, cell-based. To be noted: HCT-116, 48 h.
Experiment [18] concerns SMMC-7721. Put plainly: Cytotoxicity against human SMMC-7721 cells assessed as inhibition of cell growth incubated for 48 hrs by MTT assay. The format is functional, cell-based. To be noted: SMMC-7721, 48 h.
Experiment [19] relates to Clupea harengus. The experiment in a line: Binding affinity to herring DNA assessed as binding constant incubated for 30 mins by fluorescence based EtBr-UV absorption spectral analysis.
The test system of experiment [20] is K562. The experiment in a line: Cytotoxicity against human K562 cells assessed as inhibition of cell growth incubated for 48 hrs by MTT assay. The format is functional, cell-based. To be noted: K562, 48 h.
For experiment [21], the system named is HCT-116. Put plainly: Cytotoxicity against human HCT-116 cells assessed as cell growth inhibition incubated for 48 hrs by sulforhodamine B reagent assay. The format is functional, cell-based. To be noted: HCT-116, 48 h.
The subject of experiment [22] is RXF 393. The experiment in a line: Cytotoxicity against human RXF 393 cells assessed as cell growth inhibition incubated for 48 hrs by sulforhodamine B reagent assay. The following applies: RXF 393, 48 h. The format is functional, cell-based.
Experiment [23] has as its system EKVX. The experiment in a line: Cytotoxicity against human EKVX cells assessed as cell growth inhibition incubated for 48 hrs by sulforhodamine B reagent assay. The format is functional, cell-based.
In experiment [24] the test system is Hs-578T. Put plainly: Cytotoxicity against human Hs-578T cells assessed as cell growth inhibition incubated for 48 hrs by sulforhodamine B reagent assay. The format is functional, cell-based.
The test system of experiment [25] is U-251. Put plainly: Cytotoxicity against human U-251 cells assessed as cell growth inhibition incubated for 48 hrs by sulforhodamine B reagent assay. The format is functional, cell-based. To be noted: U-251, 48 h.
Experiment [26] has as its system MDA-MB-231. The experiment in a line: Cytotoxicity against human MDA-MB-231 cells assessed as cell growth inhibition incubated for 48 hrs by sulforhodamine B reagent assay. The following applies: MDA-MB-231, 48 h. The format is functional, cell-based.
Experiment [27] concerns SNB-75. The experiment in a line: Cytotoxicity against human SNB-75 cells assessed as cell growth inhibition incubated for 48 hrs by sulforhodamine B reagent assay. The format is functional, cell-based. The following applies: SNB-75, 48 h.
For experiment [28], the system named is 786-0. The experiment in a line: Cytotoxicity against human 786-0 cells assessed as cell growth inhibition incubated for 48 hrs by sulforhodamine B reagent assay. The format is functional, cell-based. To be noted: 786-0, 48 h.
For experiment [29], the system named is OVCAR-4. The experiment in a line: Cytotoxicity against human OVCAR-4 cells assessed as cell growth inhibition incubated for 48 hrs by sulforhodamine B reagent assay. The format is functional, cell-based. To be noted: OVCAR-4, 48 h.
Experiment [30] concerns Malme-3M. Put plainly: Cytotoxicity against human Malme-3M cells assessed as cell growth inhibition incubated for 48 hrs by sulforhodamine B reagent assay. The format is functional, cell-based.
For experiment [31], the system named is SK-MEL-28. Put plainly: Cytotoxicity against human SK-MEL-28 cells assessed as cell growth inhibition incubated for 48 hrs by sulforhodamine B reagent assay. The format is functional, cell-based. To be noted: SK-MEL-28, 48 h.
Experiment [32] deals with SK-MEL-5. Put plainly: Cytotoxicity against human SK-MEL-5 cells assessed as cell growth inhibition incubated for 48 hrs by sulforhodamine B reagent assay. The following applies: SK-MEL-5, 48 h. The format is functional, cell-based.
The subject of experiment [33] is KM12. Put plainly: Cytotoxicity against human KM12 cells assessed as cell growth inhibition incubated for 48 hrs by sulforhodamine B reagent assay. The format is functional, cell-based. To be noted: KM12, 48 h.
Experiment [34] deals with NCI-H322M. The experiment in a line: Cytotoxicity against human NCI-H322M cells assessed as cell growth inhibition incubated for 48 hrs by sulforhodamine B reagent assay. The format is functional, cell-based.
Experiment [35] relates to SW-620. The experiment in a line: Cytotoxicity against human SW620 cells assessed as cell growth inhibition incubated for 48 hrs by sulforhodamine B reagent assay. The format is functional, cell-based. To be noted: SW-620, 48 h.
Experiment [36] has as its system T47D. The experiment in a line: Cytotoxicity against human T47D cells assessed as cell growth inhibition incubated for 48 hrs by sulforhodamine B reagent assay. The format is functional, cell-based.
Experiment [37] has as its system SF-539. The experiment in a line: Cytotoxicity against human SF-539 cells assessed as cell growth inhibition incubated for 48 hrs by sulforhodamine B reagent assay. The format is functional, cell-based. To be noted: SF-539, 48 h.
Experiment [38] concerns DU-145. The experiment in a line: Cytotoxicity against human DU-145 cells assessed as cell growth inhibition incubated for 48 hrs by sulforhodamine B reagent assay. The format is functional, cell-based. To be noted: DU-145, 48 h.
Experiment [39] relates to MCF7. Put plainly: Cytotoxicity against human MCF7 cells assessed as cell growth inhibition incubated for 48 hrs by sulforhodamine B reagent assay. The format is functional, cell-based. To be noted: MCF7, 48 h.
Experiment [40] deals with K562. The experiment in a line: Cytotoxicity against human K562 cells assessed as cell growth inhibition incubated for 48 hrs by sulforhodamine B reagent assay. The format is functional, cell-based. The following applies: K562, 48 h.
Experiment [41] relates to BT-549. Put plainly: Cytotoxicity against human BT-549 cells assessed as cell growth inhibition incubated for 48 hrs by sulforhodamine B reagent assay. The format is functional, cell-based. To be noted: BT-549, 48 h.

Regarding `CN(C)CCN1C(=O)c2cccc3cc(N)cc(c23)C1=O` [AMONAFIDE], the concentration for half-maximal inhibition (IC50) in [1] and in [3] was 2700 nM in each case. Besides, in [2], the Activity is recorded as 43.73%.

On to `O=C1c2cccc3c([N+](=O)[O-])ccc(c23)C(=O)N1c1cccc(-c2cc[n+]3c(c2)-c2cccc[n+]2CC3)c1`, for which the thermal shift (ΔTm) came to 23 °C in experiment [4] and 11 °C in experiment [5]. Further, the K in experiment [6] is 6.5 10^6/M.

Take `O=C1c2cccc3cccc(c23)C(=O)N1c1nc(-c2cc3cc(Cl)cc(Cl)c3oc2=O)cs1`: the MIC in experiment [7], in experiment [10], in experiment [11] and in [12] was 18.8 µg/mL (≈ 38 µM) in each case. In addition, the thermal shift (ΔTm) in experiment [8] stood at 3.8 °C. In [9], the IC50 was determined as 190 nM.

For `C[n+]1ccc(CCN2C(=O)c3cccc4c(N)ccc(c34)C2=O)cc1`, the values for the Kb in [13], in experiment [14] and in [15] were 0.82 10^5/M, 5.15 10^5/M and 1.38 10^5/M, respectively.

Consider `C[n+]1ccn(CCN2C(=O)c3cc(Br)c4c5c(cc(Br)c(c35)C2=O)C(=O)N(CCn2cc[n+](C)c2)C4=O)c1`, for which the K in [16] is 9.53 10^6/M.

For the compound `NCCCCNCCCN1C(=O)c2cccc3cccc(c23)C1=O`, the IC50 in [17], in experiment [18] and in [20] was 5450 nM each time. In experiment [19], the Kb is 6.06 10^3/M.

For `CN1CCN(c2ccc3nc(-c4ccc(OCCCN5C(=O)c6cccc7cccc(c67)C5=O)cc4)[nH]c3c2)CC1`, the half-inhibitory concentration (IC50) in experiment [21], in experiment [22], in [23], in experiment [24], in experiment [25] and in [26] was 110 nM throughout. Also, the half-maximal inhibitory concentration (IC50) in [27], in experiment [28], in [29], in [30], in experiment [31] and in experiment [32] was 110 nM each time. Also, the concentration for half-maximal inhibition (IC50) in [33], in experiment [34], in experiment [35], in [36], in experiment [37] and in experiment [38] was 110 nM throughout. Moreover, the half-inhibitory concentration (IC50) in experiment [39], in experiment [40] and in experiment [41] was 110 nM in each case.

These data come from ChEMBL document CHEMBL5244223, “l,8-Naphthalimide based DNA intercalators and anticancer agents. A systematic review from 2007 to 2017” (Eur J Med Chem, 2018).
